Results as given in publication PMC4014597 (PLoS ONE, 2014).

Experiments:
[1] = target: T1, C-terminal catalytic domain of human DNMT3A (hDNMT3A) (Homo sapiens, UniProt Q9Y6K1); assay: DNMT3A assay (restriction-based fluorescence assay); format: biochemical; conditions: for inhibition at 100 µM: 100 µM compound; for inhibition at 100 µM / inhibition at 10 µM / inhibition at 3.2 µM / inhibition at 32 µM: read-out: % inhibition ± SD hDNMT3A
T1 construct: catalytic domain of human DNMT3A (residues 623–908), produced as described; made in house
Text: DNMT3A enzyme inhibition was adapted from the restriction-based fluorescence assay protocol described in Ceccaldi et al.. Briefly, a 5'-labelled biotin oligonucleotide is hybridized to its complementary strand labelled with 6-carboxyfluorescein at the 3′-end into a 384 well microplate (black Optiplates; Perkin Elmer) pre-coated with avidin. The duplex contains a unique CpG site overlapping with a restriction site of a methylation sensitive restriction enzyme. The C-terminal catalytic domain of human DNMT3A (residues 623–908), produced as described, was added in each well (200 ng/well) and mixed with the chemical compounds at desired concentrations and freshly prepared AdoMet (20 µM final concentration) to start the reaction in a total volume of 50 µL. After 1 hour incubation at 37°C each well were washed three times with PBS, 0.05% Tween-20, 500 mM NaCl and three more times with PBST. Specific fluorescent signals were detected with the methylation-sensitive restriction enzyme HpyCH4IV (NEB) as described and measured on a Perkin Elmer Envision detector. The percentage of inhibition is reported. The formula used to calculate the percentage of inhibition is [(X-Y)/X]×100, where X is the signal determined in the absence of the inhibitor and Y is the signal obtained in the presence of the inhibitor. […] The non-linear regression fittings with sigmoidal dose-response (variable slope) were performed with GraphPad Prism 4.03 (GraphPad Software).

human DNMT1 (hDNMT1) = target: T2, human DNMT1 (hDNMT1) (Homo sapiens, UniProt P26358); assay: DNMT1 assay (radioactive Flashplate methylation assay); format: biochemical; conditions: 100 µM compound; for inhibition at 100 µM: read-out: % inhibition ± SD hDNMT1
T2 construct: His; made in house
Protocol: His-DNMT1 (182 kDa, human) was cloned, expressed and purified as described by Lee et al.. The DNMT1 assay was performed according to Gros et al.. Briefly, the reaction was started by addition of 90 nM of DNMT1 on a mix containing the tested compound (up to 1% DMSO), 1 µM of a AdoMet/[methyl-^3H]-AdoMet mix in a ratio of 3-to-1 (isotopic dilution 1*:3) and 0.3 µM of biotinylated DNA duplex in 10 µL final volume. The reaction was incubated at 37°C for 2 h in reaction buffer (20 mM HEPES pH 7.2, 1 mM EDTA, 50 mM KCl, 25 µg/mL BSA). 8 µL are then transferred into a streptavidin-coated Flashplate PLUS (PerkinElmer) containing 190 µL of 20 µM AdoHcy (Sigma-Aldrich) in 50 mM Tris-HCl pH 7.4. The Flashplate was agitated at room temperature for 1 h, washed three times with 200 µL of 0.05% Tween-20 in 50 mM Tris-HCl pH 7.4 and read in 200 µL of 50 mM Tris-HCl pH 7.4 on TopCount NXT (PerkinElmer). Percentages of inhibition were calculated with the same formula as in DNMT3A assay.

Human G9a = target: T3, Human G9a (Homo sapiens, UniProt Q96KQ7); assay: G9a assay (3H-AdoMet filter-binding); format: biochemical; conditions: 10-dose IC50 mode, 2-fold serial dilution starting at 400 µM
T3 sequence (Q96KQ7 786-1210 limits assumed): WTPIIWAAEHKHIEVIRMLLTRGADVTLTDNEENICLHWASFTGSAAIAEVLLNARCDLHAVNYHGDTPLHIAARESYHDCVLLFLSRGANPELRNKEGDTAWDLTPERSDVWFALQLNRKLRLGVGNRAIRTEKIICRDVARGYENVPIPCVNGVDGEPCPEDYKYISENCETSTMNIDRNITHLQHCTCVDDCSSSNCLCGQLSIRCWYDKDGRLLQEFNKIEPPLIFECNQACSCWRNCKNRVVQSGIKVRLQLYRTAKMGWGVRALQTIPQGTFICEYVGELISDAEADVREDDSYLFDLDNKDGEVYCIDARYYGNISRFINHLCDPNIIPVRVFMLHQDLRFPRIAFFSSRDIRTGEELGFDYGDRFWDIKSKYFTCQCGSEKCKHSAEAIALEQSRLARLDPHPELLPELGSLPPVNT
Protocol: The reaction buffer was 50 mM Tris-HCl, pH 8.5, 50 mM NaCl, 5 mM MgCl2, 1 mM dithiothreitol (DTT), 1 mM PMSF, and 1% DMSO. Standard substrate concentrations were 5 µM biotinylated H3 (1–21) peptide (AnaSpec) substrate and 0.1 mM AdoMet. For control compound IC50 determinations, the test compounds were diluted in DMSO and then added to the enzyme/substrate mixture in nanoliter amounts by using an acoustic technology (Echo 500; Lab-cyte). The reaction was initiated by the addition of ^3H-AdoMet, and incubated at 30°C for 1 h. The reaction was detected by a filter-binding method. Data analysis was performed using Graph Pad Prism software for curve fits, and GraFit (Erithacus) for global fit of kinetic studies.

U-937 cells = tested on: U-937 cells; parameters: method as in PMID 24387159; conditions: 48 h; read-out: IC50 (mean ± SD) cell viability U-937; cited from earlier work
[2] = tested on: CMV-luc construct in KG-1 cells; assay: CMV-luc assay (luciferase re-expression from methylated CMV promoter); format: cell-based; conditions: 24 h
RAJI cells = tested on: RAJI cells; parameters: method as in PMID 24387159; conditions: 48 h; read-out: IC50 (mean ± SD) cell viability RAJI; cited from earlier work
[3] = target: T4, human G9a-like protein (GLP) (Homo sapiens, UniProt Q9H9B1); assay: GLP assay (histone methylation inhibition); format: biochemical; conditions: 8 μM inhibitor; read-out: Percent of GLP inhibition
T4 construct: catalytic SET domain (residues 734-1235; pXC758) were purified as described; made in house
T4 sequence (Q9H9B1 765-1266): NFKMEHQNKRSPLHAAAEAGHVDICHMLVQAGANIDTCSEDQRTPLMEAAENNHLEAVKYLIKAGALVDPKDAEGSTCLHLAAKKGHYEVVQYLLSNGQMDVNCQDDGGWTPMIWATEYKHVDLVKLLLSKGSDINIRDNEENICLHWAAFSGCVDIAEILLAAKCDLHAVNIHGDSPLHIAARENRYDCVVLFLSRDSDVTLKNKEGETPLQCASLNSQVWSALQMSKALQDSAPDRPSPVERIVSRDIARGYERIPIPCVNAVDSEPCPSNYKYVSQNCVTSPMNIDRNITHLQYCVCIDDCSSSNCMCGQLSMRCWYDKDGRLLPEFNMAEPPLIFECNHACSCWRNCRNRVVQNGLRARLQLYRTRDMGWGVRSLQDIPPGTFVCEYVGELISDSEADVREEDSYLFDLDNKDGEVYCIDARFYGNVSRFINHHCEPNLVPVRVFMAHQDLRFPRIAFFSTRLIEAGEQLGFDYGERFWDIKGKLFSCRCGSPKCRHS
Protocol: GLP Assay. Recombinant human G9a-like protein (GLP) C-terminal fragment containing both the ankyrin repeats and catalytic SET domain (residues 734-1235; pXC758) were purified as described. For histone methylation inhibition, the assay was performed in 20 μL reaction containing 4.6 mM [methyl-^3H]-AdoMet, 50 μg/mL histone from calf thymus (SIGMA), 10 μg/mL (0.17 μM) GLP, 100 mM KCl, 5 mM (DTT) and 50 mM Tris-HCl pH 8.5. GLP was pre-incubated with AdoMet and 8 µM inhibitors for 5 min at 30 °C before the addition of the histone substrate. After incubation (5 min), the reaction was terminated by the addition of 20% trichloroacetic acid (TCA, Fisher Scientific). The reaction mixture was spotted on GF/A paper circles (Whatman), washed three times with 3 mL of 10% TCA and once with 3 mL of ethanol. The dried circles were subjected to liquid-scintillation counting with Cytoscint scintillant.

T2 sequence (P26358 whole entry): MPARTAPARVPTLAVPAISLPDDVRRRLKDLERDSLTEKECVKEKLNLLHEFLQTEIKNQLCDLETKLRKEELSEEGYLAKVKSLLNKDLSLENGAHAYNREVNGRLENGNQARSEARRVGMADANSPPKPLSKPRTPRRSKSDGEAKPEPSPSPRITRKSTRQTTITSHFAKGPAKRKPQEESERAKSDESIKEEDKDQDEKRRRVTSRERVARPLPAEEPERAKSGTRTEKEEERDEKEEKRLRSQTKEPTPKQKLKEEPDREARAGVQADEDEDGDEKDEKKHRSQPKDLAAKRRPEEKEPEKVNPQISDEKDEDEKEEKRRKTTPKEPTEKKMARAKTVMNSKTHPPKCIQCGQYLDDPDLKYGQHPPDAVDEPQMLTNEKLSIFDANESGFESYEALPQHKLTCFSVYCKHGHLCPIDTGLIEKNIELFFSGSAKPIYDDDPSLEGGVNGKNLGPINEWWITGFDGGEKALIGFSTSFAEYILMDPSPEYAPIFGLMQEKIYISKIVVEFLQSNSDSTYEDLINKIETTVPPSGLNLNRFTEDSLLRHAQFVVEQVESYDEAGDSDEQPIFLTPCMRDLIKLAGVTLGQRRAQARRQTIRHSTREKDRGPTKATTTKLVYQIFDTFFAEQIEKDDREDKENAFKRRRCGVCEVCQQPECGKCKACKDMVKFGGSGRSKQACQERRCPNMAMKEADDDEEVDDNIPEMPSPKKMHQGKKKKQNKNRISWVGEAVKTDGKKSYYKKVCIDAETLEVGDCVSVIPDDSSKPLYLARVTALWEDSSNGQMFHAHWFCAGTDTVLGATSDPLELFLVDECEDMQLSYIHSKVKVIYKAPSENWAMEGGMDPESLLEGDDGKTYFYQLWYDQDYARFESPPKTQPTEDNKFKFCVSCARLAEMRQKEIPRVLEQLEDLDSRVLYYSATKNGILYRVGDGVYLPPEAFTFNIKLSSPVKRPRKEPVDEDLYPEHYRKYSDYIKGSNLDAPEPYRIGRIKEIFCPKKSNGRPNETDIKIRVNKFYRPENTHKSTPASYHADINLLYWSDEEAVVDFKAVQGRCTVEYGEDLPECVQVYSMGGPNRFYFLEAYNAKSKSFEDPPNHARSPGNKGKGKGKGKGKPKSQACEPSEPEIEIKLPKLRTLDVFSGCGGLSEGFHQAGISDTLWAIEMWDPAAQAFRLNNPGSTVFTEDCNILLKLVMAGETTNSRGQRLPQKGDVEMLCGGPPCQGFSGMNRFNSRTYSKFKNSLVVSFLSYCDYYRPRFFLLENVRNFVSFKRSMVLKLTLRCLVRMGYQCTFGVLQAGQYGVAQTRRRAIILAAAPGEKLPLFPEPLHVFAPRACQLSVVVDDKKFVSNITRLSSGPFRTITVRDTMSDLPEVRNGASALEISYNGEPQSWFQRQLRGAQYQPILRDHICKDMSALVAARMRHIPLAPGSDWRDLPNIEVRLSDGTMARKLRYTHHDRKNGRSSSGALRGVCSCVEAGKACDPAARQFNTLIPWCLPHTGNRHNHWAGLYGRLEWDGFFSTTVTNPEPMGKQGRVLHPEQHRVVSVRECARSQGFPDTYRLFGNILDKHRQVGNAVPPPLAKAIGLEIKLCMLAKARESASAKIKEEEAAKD
T1 sequence (Q9Y6K1 627-912): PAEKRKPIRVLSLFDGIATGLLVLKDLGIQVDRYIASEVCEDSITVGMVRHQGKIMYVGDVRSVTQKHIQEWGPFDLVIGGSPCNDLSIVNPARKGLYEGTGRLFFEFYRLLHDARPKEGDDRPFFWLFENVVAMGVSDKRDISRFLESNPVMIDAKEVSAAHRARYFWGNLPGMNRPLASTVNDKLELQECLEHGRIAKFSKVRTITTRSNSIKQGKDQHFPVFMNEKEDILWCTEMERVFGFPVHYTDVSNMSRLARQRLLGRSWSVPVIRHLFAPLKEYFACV

`c1ccc(CN2CCC(Nc3nc(N4CCOCC4)nc4ccccc34)CC2)cc1` [Compound 12, N-(1-benzylpiperidin-4-yl)-2-morpholinoquinazolin-4-amine] showed an inhibition at 100 µM [1] of 7% and an inhibition at 100 µM (human DNMT1 (hDNMT1)) of 0%.

Compound `OCCNc1nc(NC2CCN(Cc3ccccc3)CC2)c2ccccc2n1` [Compound 16] has a melting point of 116 to 118 °C, an inhibition at 10 µM ([1]; 10 µM compound) of 8 ± 3% and an inhibition at 100 µM [1] of 37 ± 4%. For the same compound, the inhibition at 100 µM (human DNMT1 (hDNMT1)) was 0%.

Compound `CN1C(=O)[C@@]23C[C@]4([C@]56C[C@@]78SS[C@@](CO)(C(=O)N7[C@H]5Nc5ccccc56)N(C)C8=O)c5ccccc5N[C@@H]4N2C(=O)[C@]1(CO)SS3` [chaetocin, reference compound] has an IC50 (Human G9a) of 8 µM.

Work on `CN(C)CCCNc1nc(NC2CCN(Cc3ccccc3)CC2)c2ccccc2n1` [Compound 18] yielded an inhibition at 100 µM [1] of 8 ± 1% and an inhibition at 100 µM (human DNMT1 (hDNMT1)) of 0%.

In the case of `c1ccc(CN2CCC(Nc3nc(N4CCCCC4)nc4ccccc34)CC2)cc1` [Compound 6], the inhibition at 3.2 µM ([1]; 3.2 µM compound) is reported as 11 ± 5%, the inhibition at 10 µM ([1]; 10 µM compound) is reported as 14 ± 6% and the inhibition at 32 µM ([1]; 32 µM compound) is reported as 33 ± 6%. The inhibition at 100 µM [1] was 57 ± 8% and the inhibition at 100 µM (human DNMT1 (hDNMT1)) was 0%.

In the case of `c1ccc(CN2CCC(Nc3nc(N4CCCCCC4)nc4ccccc34)CC2)cc1` [Compound 7], the melting point is reported as 119 to 122 °C, the inhibition at 3.2 µM ([1]; 3.2 µM compound) is reported as 7 ± 2% and the inhibition at 10 µM ([1]; 10 µM compound) is reported as 16 ± 2%. For the same compound, the inhibition at 32 µM ([1]; 32 µM compound) was 32 ± 3%, the inhibition at 100 µM [1] was 57 ± 3% and the inhibition at 100 µM (human DNMT1 (hDNMT1)) was 0%.

Compound `c1ccc(CN2CCC(Nc3nc(N4CCSCC4)nc4ccccc34)CC2)cc1` [Compound 11] has a melting point of 155 to 157 °C, an inhibition at 10 µM ([1]; 10 µM compound) of 8 ± 2% and an inhibition at 100 µM [1] of 42 ± 3%. It also gave an inhibition at 100 µM (human DNMT1 (hDNMT1)) of 0%.

For `Cc1cc(Nc2ccc(NC(=O)c3ccc(Nc4ccnc5ccccc45)cc3)cc2)nc(N)n1` [SGI-1027, reference compound], the IC50 (U-937 cells) is given as 1.7 ± 1.1 µM, the “% inhibition ± SD hDNMT3A” value ([1]; 3.2 µM compound) is given as 80±4% and the “% inhibition ± SD hDNMT3A” value ([1]; 10 µM compound) is given as 72±6%. For the same compound, the “% inhibition ± SD hDNMT3A” value ([1]; 32 µM compound) was 75±7%, the “fold-induction of the luciferase signal (CMV-luc)” value (shortened to “fold-induction”) ([2]; 5 µM) was 17 fold and the “fold-induction” value ([2]; 10 µM) was 10 fold. The “fold-induction” value ([2]; 25 µM) was “no induction”, the IC50 (RAJI cells) was 9.1 ± 0.8 µM and the “% inhibition ± SD hDNMT1” value (human DNMT1 (hDNMT1)) was 100±0.1%.

`CN1CCN(c2nc(NC3CCN(Cc4ccccc4)CC3)c3ccccc3n2)CC1` [Compound 5] gave an inhibition at 10 µM ([1]; 10 µM compound) of 0%, an inhibition at 32 µM ([1]; 32 µM compound) of 14 ± 3% and an inhibition at 100 µM [1] of 30 ± 8%. It also gave an inhibition at 100 µM (human DNMT1 (hDNMT1)) of 0%.

Compound `CC1CCN(c2nc(NC3CCN(Cc4ccccc4)CC3)c3ccccc3n2)CC1` [Compound 8] has a melting point of 106 to 108 °C, an inhibition at 3.2 µM ([1]; 3.2 µM compound) of 7 ± 1% and an inhibition at 10 µM ([1]; 10 µM compound) of 14 ± 2%. The inhibition at 32 µM ([1]; 32 µM compound) was 35 ± 5%, the inhibition at 100 µM [1] was 53 ± 3% and the inhibition at 100 µM (human DNMT1 (hDNMT1)) was 0%.

With `CC1CCCCN1c1nc(NC2CCN(Cc3ccccc3)CC2)c2ccccc2n1` (centres unmarked) [Compound 9] the melting point was 128 to 129 °C, the inhibition at 3.2 µM ([1]; 3.2 µM compound) was 1 ± 1% and the inhibition at 10 µM ([1]; 10 µM compound) was 5 ± 2%. It also gave an inhibition at 32 µM ([1]; 32 µM compound) of 14 ± 7%, an inhibition at 100 µM [1] of 47 ± 5% and an inhibition at 100 µM (human DNMT1 (hDNMT1)) of 0%.

`O=C(c1ccccc1)N1CCN(c2nc(NC3CCN(Cc4ccccc4)CC3)c3ccccc3n2)CC1` [Compound 15] showed a melting point of 213 to 215 °C, an inhibition at 100 µM [1] of 23 ± 2% and an inhibition at 100 µM (human DNMT1 (hDNMT1)) of 0%.

For `CN(C)CCNc1nc(NC2CCN(Cc3ccccc3)CC2)c2ccccc2n1` [Compound 17], the melting point was 120 to 122 °C, the inhibition at 100 µM [1] was 10% and the inhibition at 100 µM (human DNMT1 (hDNMT1)) was 0%.

For `COc1cc2nc(N3CCCN(C)CC3)nc(NC3CCN(Cc4ccccc4)CC3)c2cc1OC` [Compound 1, BIX-01294, reference compound], the inhibition at 8 µM [3] was 91.7%, the inhibition at 100 µM [1] was 12 ± 3% and the “% inhibition ± SD hDNMT1” value (human DNMT1 (hDNMT1); 100 µM) was 35±8%. For the same compound, the inhibition at 100 µM (human DNMT1 (hDNMT1)) was 30%.
